From patent publication US8338422B2, “Indolin-2-ones and aza-indolin-2-ones” (Janssen Pharmaceutica NV, priority 2007, dated 2012)
Several values for one entry are separate records, joined by “and”; a condition that tells them apart may be missing. Equal values may be shown once.

Legend:
H1299 = experiment: Cellular proliferation assay (Alamar blue), H1299; assay type: cell-based; details: H1299 cells, 72 hours with compound, 10% FCS; for IC50: Homo sapiens, NCI-H1299, 72 h, read-out: pIC50 H1299 (converted)
Experimental: (§1) […] functional properties of these compounds was tested in cellular proliferation assays on a panel of different cell lines in the presence of 10% FCS serum (37° C. and 5% (v/v) CO2). In a first step these cells were seeded and incubated for 24 hours in the absence of compound. In the second step the cells were incubated for 72 hours with the compounds to be tested for 72 hours. The viable cell number was finally assessed in a standard Alamar blue cell viability assay.
(§2) The viable cell number was assessed by incubation for either 4 h (HCT-116, H1299, H460) 6 h (SKOV3, HT29, U87-MG, Colo205) or 24 h (A2780, PC3, MDA-MB-231, A549, MCF-7) with Alamar blue (Resazurin 9 μg/ml, K-Ferrocyanide 90 μM K-Ferricyanide 90 μM) and the converted fluorescent product was quantified on a fluorescent plate readed (544 nm/590 nm). Effect of the compounds is calculated as of on control cells.

AuroraB (h) = AuroraB (h) (Homo sapiens, UniProt Q96GD4); experiment: Aurora-B human kinase assay (SPA); assay type: biochemical; details: for IC50: read-out: AuroraB pIC50 (converted)
AuroraB (h), sequence (Q96GD4 whole entry): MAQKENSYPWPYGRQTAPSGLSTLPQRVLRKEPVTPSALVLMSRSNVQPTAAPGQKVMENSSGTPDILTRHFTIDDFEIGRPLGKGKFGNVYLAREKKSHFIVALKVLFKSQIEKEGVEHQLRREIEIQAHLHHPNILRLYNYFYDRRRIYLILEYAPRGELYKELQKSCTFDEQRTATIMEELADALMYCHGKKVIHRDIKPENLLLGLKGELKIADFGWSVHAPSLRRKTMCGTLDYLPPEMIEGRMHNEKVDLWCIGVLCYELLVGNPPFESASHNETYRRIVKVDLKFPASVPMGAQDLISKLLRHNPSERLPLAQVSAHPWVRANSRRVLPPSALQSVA
How it was run: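 33P-phosphorylated biotin-substrate captured on streptavidin PVT SPA beads after EDTA-containing stop and imaged on Leadseeker. Reaction: 60 min at room temperature, Hepes pH 7.5 with Mg2+/Mn2+. Conditions: 0.5 μM ATP plus 2.2 nM [γ-33P]ATP, 3 μM substrate, 0.5 μg/ml human AuroraB.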

GSK3β (h) = GSK3β (h) (Homo sapiens, UniProt P49841); experiment: GSK-3β human kinase assay (SPA); assay type: biochemical; details: for IC50: read-out: GSK3B pIC50 (converted)
GSK3β (h), sequence (P49841 whole entry): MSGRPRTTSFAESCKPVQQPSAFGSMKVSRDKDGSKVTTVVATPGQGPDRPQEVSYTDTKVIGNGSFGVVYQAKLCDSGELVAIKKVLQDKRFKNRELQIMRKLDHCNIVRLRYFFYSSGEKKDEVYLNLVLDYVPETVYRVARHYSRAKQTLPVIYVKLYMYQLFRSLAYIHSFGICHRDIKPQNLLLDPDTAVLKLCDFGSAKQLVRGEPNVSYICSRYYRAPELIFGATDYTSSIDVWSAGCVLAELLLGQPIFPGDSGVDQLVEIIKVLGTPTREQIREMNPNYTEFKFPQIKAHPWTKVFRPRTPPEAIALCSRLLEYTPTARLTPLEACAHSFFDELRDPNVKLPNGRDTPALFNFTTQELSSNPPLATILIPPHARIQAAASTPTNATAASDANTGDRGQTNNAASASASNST
How it was run: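 Radiometric SPA read-out: after EDTA stop, biotinylated 33P-labelled peptide bound streptavidin PVT beads and was imaged on Leadseeker. Reaction: 60 min, room temperature, GSK3β (h) at 1 μg/ml, 1 μM substrate peptide, 1 μM ATP with 2 nM [γ-33P]ATP, Tris pH 7.4/MgCl2/DTT buffer.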

PC-3 = experiment: Cellular proliferation assay (Alamar blue), PC-3; assay type: cell-based; details: PC-3 cells, 72 hours with compound, 10% FCS; for IC50: Homo sapiens, PC-3, 72 h, read-out: pIC50 PC-3 (converted)
Experimental: as §1, §2

PLK4 (h) = PLK4 (h) (Homo sapiens, UniProt O00444); experiment: PLK-4 human kinase assay (SPA); assay type: biochemical; details: for IC50: read-out: PLK4 pIC50 (converted)
PLK4 (h), sequence (O00444 whole entry): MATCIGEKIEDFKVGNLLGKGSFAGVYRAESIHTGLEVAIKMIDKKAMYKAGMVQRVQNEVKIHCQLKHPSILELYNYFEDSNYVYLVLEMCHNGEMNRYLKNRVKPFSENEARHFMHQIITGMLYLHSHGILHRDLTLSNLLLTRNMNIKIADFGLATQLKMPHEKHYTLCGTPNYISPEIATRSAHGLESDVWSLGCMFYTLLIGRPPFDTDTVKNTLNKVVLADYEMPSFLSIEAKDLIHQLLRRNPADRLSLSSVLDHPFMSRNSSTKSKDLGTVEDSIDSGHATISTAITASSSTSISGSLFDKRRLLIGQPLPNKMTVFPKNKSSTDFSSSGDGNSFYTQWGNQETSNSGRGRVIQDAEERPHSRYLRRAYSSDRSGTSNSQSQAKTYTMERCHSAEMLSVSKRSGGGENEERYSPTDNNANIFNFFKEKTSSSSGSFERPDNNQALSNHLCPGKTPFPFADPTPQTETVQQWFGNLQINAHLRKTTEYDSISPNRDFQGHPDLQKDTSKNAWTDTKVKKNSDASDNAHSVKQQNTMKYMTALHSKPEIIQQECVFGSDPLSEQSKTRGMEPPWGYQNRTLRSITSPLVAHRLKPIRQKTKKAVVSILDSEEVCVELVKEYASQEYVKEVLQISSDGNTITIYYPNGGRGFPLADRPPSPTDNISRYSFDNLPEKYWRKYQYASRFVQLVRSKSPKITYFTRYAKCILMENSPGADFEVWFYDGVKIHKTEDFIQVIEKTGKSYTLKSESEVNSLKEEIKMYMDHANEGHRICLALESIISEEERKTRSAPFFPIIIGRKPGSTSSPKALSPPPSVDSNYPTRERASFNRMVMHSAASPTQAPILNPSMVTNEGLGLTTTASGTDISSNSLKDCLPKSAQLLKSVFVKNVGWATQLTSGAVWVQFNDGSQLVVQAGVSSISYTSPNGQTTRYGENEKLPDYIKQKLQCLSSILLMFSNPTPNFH
How it was run: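 Radiometric readout: 33P-labelled peptide captured on streptavidin SPA beads after EDTA stop, imaged by Leadseeker. Reaction ran 60 min at room temperature in Hepes pH 8.0 buffer. It contained 1 μM ATP with 2 nM [γ-33P]ATP, 10 μM biotinylated peptide and PLK4 (h) at 19 μg/ml.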

HCT-116 = experiment: Cellular proliferation assay (Alamar blue), HCT-116; assay type: cell-based; details: HCT-116 cells, 72 hours with compound, 10% FCS; for IC50: Homo sapiens, HCT-116, 72 h, read-out: pIC50 HCT-116 (converted)
Experimental: as §1, §2

U87MG = experiment: Cellular proliferation assay (Alamar blue), U87MG; assay type: cell-based; details: U87MG cells, 72 hours with compound, 10% FCS; for IC50: Homo sapiens, U-87 MG, 72 h, read-out: pIC50 U87MG (converted)
Experimental: as §1, §2

CDK1/CyclinB (h) = CDK1/CyclinB (h) (Homo sapiens, UniProt P06493); experiment: CDK1/CyclinB human kinase assay (FRET); assay type: biochemical; details: for IC50: read-out: CDK1 pIC50 (converted)
CDK1/CyclinB (h), sequence (P06493 whole entry): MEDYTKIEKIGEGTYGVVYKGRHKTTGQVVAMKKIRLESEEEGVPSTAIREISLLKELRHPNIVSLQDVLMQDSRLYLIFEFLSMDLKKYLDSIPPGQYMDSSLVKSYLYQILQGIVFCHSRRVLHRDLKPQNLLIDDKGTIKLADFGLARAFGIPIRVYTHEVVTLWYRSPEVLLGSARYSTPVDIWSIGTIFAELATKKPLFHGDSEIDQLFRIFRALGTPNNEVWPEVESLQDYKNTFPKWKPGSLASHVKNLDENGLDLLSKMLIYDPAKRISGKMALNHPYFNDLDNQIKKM
CDK1/CyclinB (h), sequence (P14635 whole entry partner): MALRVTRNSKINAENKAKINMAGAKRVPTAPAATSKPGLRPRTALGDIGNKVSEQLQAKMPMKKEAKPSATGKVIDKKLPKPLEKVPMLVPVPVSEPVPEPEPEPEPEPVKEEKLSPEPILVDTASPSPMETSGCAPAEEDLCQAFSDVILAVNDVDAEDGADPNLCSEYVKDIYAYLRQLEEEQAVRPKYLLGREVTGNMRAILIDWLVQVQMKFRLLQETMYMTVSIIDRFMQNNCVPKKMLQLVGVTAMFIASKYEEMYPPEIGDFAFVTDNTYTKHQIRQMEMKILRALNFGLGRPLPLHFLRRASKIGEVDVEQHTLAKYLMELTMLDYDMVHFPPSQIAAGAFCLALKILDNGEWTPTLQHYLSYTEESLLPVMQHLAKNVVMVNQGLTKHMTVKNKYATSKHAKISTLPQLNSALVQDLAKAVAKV
How it was run: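 Kinase activity was read as the 460/538 nm emission ratio after protease cleavage of unphosphorylated peptide (60 min development). The reaction ran 60 min at room temperature with 10 μM ATP, 2 μM Ser/Thr peptide 12 and 0.2 μg/ml enzyme in Hepes pH 7.5 buffer with MgCl2, EGTA, Brij-35.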

A2780 = experiment: Cellular proliferation assay (Alamar blue), A2780; assay type: cell-based; details: A2780 cells, 72 hours with compound, 10% FCS; for IC50: Homo sapiens, A2780, 72 h, read-out: pIC50 A2780 (converted)
Experimental: as §1, §2

MDA/MB231 = experiment: Cellular proliferation assay (Alamar blue), MDA/MB231; assay type: cell-based; details: MDA/MB231 cells, 72 hours with compound, 10% FCS; for IC50: Homo sapiens, MDA-MB-231, 72 h, read-out: pIC50 MDA/MB231 (converted)
Experimental: as §1, §2

| Compound | IC50 (H1299) [µM] | IC50 (AuroraB (h)) | IC50 (GSK3β (h)) | IC50 (PC-3) [µM] | IC50 (PLK4 (h)) | IC50 (HCT-116) [µM] | IC50 (U87MG) [µM] | IC50 (CDK1/CyclinB (h)) [µM] | IC50 (A2780) [µM] | IC50 (MDA/MB231) [µM] | pIC50 H1299 (H1299) | AuroraB pIC50 (AuroraB (h)) | GSK3B pIC50 (GSK3β (h)) | pIC50 PC-3 (PC-3) | PLK4 pIC50 (PLK4 (h)) | pIC50 HCT-116 (HCT-116) | pIC50 U87MG (U87MG) | CDK1 pIC50 (CDK1/CyclinB (h)) | pIC50 A2780 (A2780) | pIC50 MDA/MB231 (MDA/MB231) |
| --- | --- | --- | --- | --- | --- | --- | --- | --- | --- | --- | --- | --- | --- | --- | --- | --- | --- | --- | --- | --- |
| COc1ccc2cc1OCC(=O)N(C)CCCCNc1ncnc3c1/C(=C/N2)C(=O)N3 [Compound 151] | > 10 | 2.88 µM | 0.933 µM | > 10 | 3.47 µM | > 10 | > 10 | > 10 | > 10 | > 10 |  |  |  |  |  |  |  |  |  |  |
| COc1ccc2cc1OCCCCC(=O)NCCN(C)c1ncnc3c1C(=CN2)C(=O)N3 (mixture of isomers) [Compound 44] |  |  |  |  |  |  |  |  |  |  | <5 | <5 | 5.31 | <5 | 5.22 | <5 | <5 | <5 | <5 | <5 |
| COc1ccc2cc1OCCCCCCC(=O)NCCN(C)c1ncnc3c1/C(=C/N2)C(=O)N3 [Compound 47] | > 10 | 8.71 µM | 4.79 µM | > 10 | 2.29 µM | > 10 | > 10 | > 10 | > 10 | > 10 |  |  |  |  |  |  |  |  |  |  |
| CN1CCCNc2ncnc3c2/C(=C/Nc2cccc(c2)OCC(=O)N2CCC[C@@H]2C1)C(=O)N3 [Compound 170] | > 10 | > 10 µM | 8.91 µM | > 10 | 7.41 µM | > 10 | > 10 |  | > 10 | > 10 |  |  |  |  |  |  |  |  |  |  |
| CN1CCNC(=O)COc2cccc(c2)N/C=C2\C(=O)Nc3ncnc(c32)NCC1 [Compound 167] | > 10 | 6.76 µM and 3.24 µM | 0.933 µM and 1.12 µM | > 10 | 2.4 µM | 5.5 | > 10 |  | 5.89 | > 10 |  |  |  |  |  | 5.06 |  |  | 5.13 |  |
| C[C@@H]1CN(C)CCCNc2ncnc3c2/C(=C/Nc2cccc(c2)OCC(=O)N1)C(=O)N3 [Compound 99] | > 10 | > 10 µM | 2.04 µM | > 10 | 0.417 µM | > 10 | > 10 |  | > 10 | > 10 |  |  |  |  |  |  |  |  |  |  |
| CN1CCNc2ncnc3c2/C(=C/Nc2cccc(c2)OCC(=O)N2CCC[C@@H]2C1)C(=O)N3 [Compound 168] | > 10 | > 10 µM | 7.59 µM and 5.75 µM | > 10 | > 10 µM and 6.17 µM | > 10 | > 10 |  | > 10 | > 10 |  |  |  |  |  |  |  |  |  |  |
| CN1CCCNc2ncnc3c2/C(=C/Nc2ccc(NS(=O)(=O)c4ccccc4)c(c2)OCCCC1=O)C(=O)N3 [Compound 109] | > 10 | 0.0912 µM | 0.141 µM | > 10 | 0.224 µM | 0.603 | > 10 |  | 0.871 | > 10 |  |  |  |  |  |  |  |  |  |  |
| CN1CCNC(=O)CCCOc2cccc(c2)N/C=C2\C(=O)Nc3ncnc(c32)NCC1 [Compound 159] | > 10 | > 10 µM | 2.88 µM | > 10 | 4.37 µM | > 10 | > 10 |  | > 10 | > 10 |  |  |  |  |  |  |  |  |  |  |
| CN1CCCNc2ncnc3c2/C(=C/Nc2cc(cc(C(F)(F)F)c2)OCCCC1=O)C(=O)N3 [Compound 113] | > 10 | 1.38 µM | > 10 µM | > 10 |  | > 10 | > 10 | > 10 | > 10 | > 10 |  |  |  |  |  |  |  |  |  |  |
| CN1CCCNc2ncnc3c2/C(=C/Nc2ccc(NC(=O)c4ccccc4)c(c2)OCCCC1=O)C(=O)N3 [Compound 108] | > 10 | 0.617 µM | 1.55 µM | > 10 | 0.891 µM | > 10 | > 10 |  | > 10 | 8.32 |  |  |  |  |  |  |  |  |  |  |
| CN1CCNc2ncnc3c2/C(=C/Nc2ccc(Cl)c(c2)OCC(=O)N2CCC[C@@H]2C1)C(=O)N3 [Compound 192] | 2.51 | > 10 µM | 5.01 µM | > 10 | > 10 µM | 2.19 | > 10 |  | 3.09 | > 10 |  |  |  |  |  |  |  |  |  |  |
| CN1CCNc2ncnc3c2/C(=C/Nc2cccc(c2)OCC(=O)N[C@H](Cc2ccccc2)C1)C(=O)N3 [Compound 169] | 8.32 | 3.55 µM | 1.86 µM and 3.24 µM | > 10 | 1.82 µM and 2 µM | > 10 | 7.41 |  | 9.12 | > 10 | <5 |  |  |  |  | 5.07 | <5 |  | 5.08 |  |
| CN1CCCNc2ncnc3c2/C(=C/Nc2ccc(NCc4ccccc4)c(c2)OCCCC1=O)C(=O)N3 [Compound 110] | 2.63 | 0.537 µM | 0.912 µM | 5.01 | 0.407 µM | 1.66 | 8.71 |  | 1.17 | > 10 |  |  |  |  |  |  |  |  |  |  |
| COc1ccc2cc1OCC(=O)NCCN1CCN(CC1)c1ncnc3c1/C(=C/N2)C(=O)N3 [Compound 207] | > 10 | 1.86 µM | 4.07 µM | > 10 |  | > 10 | > 10 |  | > 10 | > 10 |  |  |  |  |  |  |  |  |  |  |
| CN1CCCNc2ncnc3c2/C(=C/Nc2ccc(NC(=O)Nc4ccccc4)c(c2)OCCCC1=O)C(=O)N3 [Compound 158] | 0.55 | 0.331 µM | 3.55 µM | 1.32 | 2.75 µM | 0.229 | 1.23 |  | 0.166 | 4.37 |  |  |  |  |  |  |  |  |  |  |
| CN1CCNC(=O)CCCCOc2cccc(c2)N/C=C2\C(=O)Nc3ncnc1c32 [Compound 43] | > 10 |  | 2.51 µM | > 10 | 2.63 µM | > 10 | > 10 | 4.27 | > 10 | > 10 |  |  |  |  |  |  |  |  |  |  |
| CN1CCCNc2ncnc3c2/C(=C/Nc2ccc(NC(=O)NC4CCCCC4)c(c2)OCCCC1=O)C(=O)N3 [Compound 107] | 0.275 | 0.275 µM | 2 µM | 1.58 | 1.05 µM | 0.17 | 2.04 |  | 0.0724 | 2.34 |  |  |  |  |  |  |  |  |  |  |
| CN1CCCNc2ncnc3c2/C(=C/Nc2cccc(c2)OCC(=O)N[C@H](Cc2ccccc2)C1)C(=O)N3 [Compound 176] | > 10 | 6.76 µM | 9.55 µM | > 10 | 0.468 µM | > 10 | > 10 |  | > 10 | > 10 |  |  |  |  |  |  |  |  |  |  |
